The nature of one series: pH of MgSO4 grades. The class given is physicochemical. Conditions: MgSO4 grade.
Series [1] can be described thus: nBTPT stability on YaraVera Amidas (UAS) during storage, HPLC analysis of nBTPT content. The class given is physicochemical. Conditions: for Stabilizing effect on nBTPT on UAS: Experiment 4, MgSO4/MgO combinations, FIG. 4. As to the method: For lab scale experiments, 1.2 kg of solid fertilizer material was added to a lab scale drum. […] A residence time of 10 minutes was applied and the rotating speed of the drum was consequently the same in each experiment. […] Before use, the moisture-repellent coating was preheated to 80° C. Larger scale experiments with amounts up to 40 kg of fertilizer material were performed in a concrete mixer. The samples were stored under several conditions, dependent on the type of samples: • Bagged at room temperature (18-25° C.) • Bagged at 40° C. • Open to air at room temperature (18-25° C.) 3.

Five molecules from US11578009B2, “Urea-based blend composition and method for the manufacture thereof” (YARA INTERNATIONAL ASA, priority 2018, dated 2023) can be followed below.

Regarding `O=S(=O)([O-])[O-].[Mg+2]` [MgSO4 99.999%], in the series “pH of MgSO4 grades”, the pH amounted to 6.1.

Turning to `O=S(=O)([O-])[O-].[Mg+2]` [MgSO4, magnesium sulphate], the “Stabilizing effect on nBTPT in the presence of UAS” value in series [1] (Experiment 2, open to air at room temperature 40 days (FIG. 2A) and in bags at 40° C. 8 days (FIG. 2B), 462 ppm nBTPT) is given as “comparable with the effect of the prior art compound (CaO)”. Also, the “Stabilizing effect on nBTPT on UAS” value in series [1] (462 ppm nBTPT) is “little effect”. In addition, the “Stabilizing effect at more than 1 weight % of magnesium sulphate” value in series [1] (more than 1 weight % in the composition) was “did not produce a proportionally better stabilizing effect”.

For `O=S(=O)([O-])[O-].[Na+].[Na+]` [Na2SO4, reference compound], the “Stability of nBTPT on YaraVera Amidas product” value in series [1] (Experiment 3, open plastic containers at room temperature for 21 days, 462 ppm nBTPT, FIG. 3) is “negative effect”.

With `O=S(=O)([O-])[O-].[Mg+2]` [MgSO4 99.5%], the pH in “pH of MgSO4 grades” amounted to 8.5.

As to `[O]=[Mg]` [MgO, magnesium oxide, reference compound], the “Stabilizing effect on nBTPT on UAS” value in series [1] (462 ppm nBTPT) is on record as “more effective than CaO”.
